Results on 9 compounds are retold here after ChEMBL document CHEMBL1201862, “PubChem BioAssay data set” (2004).

Holding throughout (assay): NCI tumour cell line growth inhibition, 48 h
For experiment [1], the system named is COLO 205.
The test system of experiment [2] is OVCAR-4.
In experiment [3] the test system is MDA-MB-435.
Experiment [4] concerns NCI-H460.
For experiment [5], the system named is Malme-3M.
The subject of experiment [6] is HOP-92.
Experiment [7] relates to MDA-MB-231.
For experiment [8], the system named is UACC-257.
For experiment [9], the system named is SN12C.
Experiment [10] has as its system Hs-578T.
In experiment [11] the test system is UO-31.
Experiment [12] deals with SF-295.
Experiment [13] has as its system HCT-15.
Experiment [14] deals with CCRF-CEM.
The subject of experiment [15] is T47D.
The subject of experiment [16] is IGROV-1.
Experiment [17] concerns NCI-H23.
Experiment [18] has as its system HCT-116.
Experiment [19] has as its system NCI-H522.
Experiment [20] concerns M19-MEL.

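The compound was tested at five concentrations on cells cultured in 96-well plates, with a 48-hour exposure period. GI50 = concentration required for 50% inhibition of growth.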 The source made the active and inactive calls. Rule as the data show it: active = GI50 up to about 1.1 µM and inactive = higher.

As to `CO[P@@]1(=O)O[C@@H](c2ccccc2)[C@H](O)[C@]1(O)c1ccccc1`, the GI50 in experiment [1], in experiment [2], in experiment [3], in experiment [4], in experiment [5] and in experiment [6] was > 100 µM (inactive) throughout. Besides, the GI50 in experiment [7], in [8], in experiment [9], in experiment [10], in experiment [11] and in [12] was > 100 µM (inactive) in each case. Besides, the GI50 is greater than 100 µM in [13]; > 100 µM (inactive) in experiment [14]; > 100 µM (inactive) in experiment [15]; > 100 µM (inactive) in experiment [16]; > 100 µM (inactive) in experiment [17]; > 100 µM (inactive) in experiment [18]. Besides, in [19], the GI50 was > 100 µM (inactive).
Take `CCNC1C2(CCCCC2)NC(=O)C12CCCCC2` (stereo not given): the GI50 in experiment [2], in [4], in [5], in [8], in experiment [11] and in experiment [12] was > 100 µM (inactive) in each case. The GI50 in [13] is greater than 100 µM; in [14], > 100 µM (inactive); in experiment [16], > 100 µM (inactive); in experiment [17], > 100 µM (inactive); in [18], > 100 µM (inactive); in [20], > 100 µM (inactive).
On to `Cc1cc(Cl)nc2nc(Cl)c(N)cc12`, for which the GI50 in experiment [1] is 2.06 µM (inactive); in [2] it was 2.64 µM (inactive); in experiment [3], 2.22 µM (inactive); in [4] it was 2.38 µM (inactive); in experiment [5], 9.53 µM (inactive); in [6] it was 2.18 µM (inactive). The GI50 in [7] is 3.48 µM (inactive); in experiment [8] it was 1.87 µM (inactive); in experiment [9], 1.9 µM (inactive); in experiment [10] it was 10.4 µM (inactive); in experiment [11], 3.92 µM (inactive); in experiment [12], 12.3 µM (inactive). For the same compound, the GI50 in experiment [13] is 1.9 µM; in [14], 1.67 µM (inactive); in experiment [15], 3.21 µM (inactive); in experiment [16], 7.87 µM (inactive); in [17], 7.24 µM (inactive); in [18], 2.48 µM (inactive). The GI50 in experiment [19] was 4.53 µM (inactive).
Regarding `CC1CNC(c2ccc(-c3nc(-c4ccc(C5=NC(C)CN5)cc4)nc(N(C)C)n3)cc2)=N1` (stereo not given), the GI50 is 1.1 µM (active) in experiment [1]; 1.55 µM (inactive) in experiment [2]; 1.46 µM (inactive) in experiment [3]; 3.27 µM (inactive) in [4]; 3.08 µM (inactive) in [5]; 3.14 µM (inactive) in [6]. Also, the GI50 in [7] is 1.31 µM (inactive); in experiment [8], 3.08 µM (inactive); in experiment [9] it was 1.47 µM (inactive); in [10], 3.21 µM (inactive); in experiment [11], 7.33 µM (inactive); in experiment [12], 4.22 µM (inactive). Also, the GI50 in experiment [13] is 16.6 µM; in experiment [14], 0.685 µM (active); in experiment [15], 2.71 µM (inactive); in experiment [16], 4.06 µM (inactive); in [17] it was 2.39 µM (inactive); in experiment [18], 0.964 µM (active). For the same compound, the GI50 in experiment [19] is 1.24 µM (inactive).
In the case of `COCCOC1=C(Cl)C(=O)c2c(O)ccc(O)c2C1=O`, the GI50 is 0.838 µM (active) in [1]; 1.94 µM (inactive) in experiment [2]; 1.02 µM (active) in experiment [3]; 5.52 µM (inactive) in experiment [4]; 0.955 µM (active) in experiment [5]; 0.726 µM (active) in [6]. Also, the GI50 in experiment [7] was 1.41 µM (inactive); in [8], 1.96 µM (inactive); in [9] it was 1.92 µM (inactive); in experiment [10] it was 3.24 µM (inactive); in experiment [11], 1.71 µM (inactive); in experiment [12], 14.8 µM (inactive). Moreover, the GI50 is 1.21 µM in [13]; 0.111 µM (active) in experiment [14]; 2.47 µM (inactive) in experiment [15]; 3.08 µM (inactive) in experiment [16]; 2.25 µM (inactive) in experiment [17]; 0.979 µM (active) in experiment [18]. Besides, the GI50 in [19] was 0.681 µM (active).
In the case of `O=C(CC(=O)Nc1ccc(Cl)cc1)NNCC(=O)Nc1nc(-c2ccccc2)cs1`, the GI50 in experiment [1], in [2], in [4], in experiment [9], in experiment [12] and in [14] was > 100 µM (inactive) each time. Also, the GI50 in [16], in [17], in experiment [18], in experiment [20] and in experiment [19] was > 100 µM (inactive) in each case.
As for `C[Si](C)(C)C(CCCCSc1ccccc1)(Sc1ccccc1)Sc1ccccc1`, the GI50 was > 100 µM (inactive) in [1]; > 100 µM (inactive) in experiment [2]; > 100 µM (inactive) in experiment [4]; 73.6 µM (inactive) in [6]; > 100 µM (inactive) in [8]; > 100 µM (inactive) in [9]. In addition, the GI50 in [11] is > 100 µM (inactive); in experiment [12] it was > 100 µM (inactive); in experiment [13], greater than 100 µM; in [14], > 100 µM (inactive); in experiment [17], 68.1 µM (inactive); in [18] it was > 100 µM (inactive). In addition, in experiment [20], the GI50 is > 100 µM (inactive).
Regarding `c1ccc(N/N=C2\CC(c3ccccc3)Oc3ccccc32)cc1` (stereo not given), the GI50 was 67.8 µM (inactive) in [1]; 46.2 µM (inactive) in experiment [2]; 27.5 µM (inactive) in [3]; 45 µM (inactive) in experiment [4]; > 100 µM (inactive) in [5]; 39.1 µM (inactive) in experiment [6]. The GI50 is 49.3 µM (inactive) in experiment [7]; 69.3 µM (inactive) in [8]; 36.2 µM (inactive) in experiment [9]; 36.5 µM (inactive) in experiment [10]; 22.1 µM (inactive) in experiment [11]; 42.7 µM (inactive) in experiment [12]. Moreover, the GI50 in experiment [13] was 31 µM; in [14], 33 µM (inactive); in experiment [15] it was 26.4 µM (inactive); in experiment [16], 22.6 µM (inactive); in experiment [17], 60.4 µM (inactive); in experiment [18], 32.1 µM (inactive). Also, in experiment [19], the GI50 was 21.8 µM (inactive).
Take `N#Cc1c2ccc([N+](=O)[O-])cc2c(=O)n2c1[nH]c1ccc(C(F)(F)F)cc12`: the GI50 is 16.9 µM (inactive) in experiment [1]; 24.8 µM (inactive) in experiment [2]; 54 µM (inactive) in experiment [3]; 21.1 µM (inactive) in [4]; 41 µM (inactive) in [5]; 12.9 µM (inactive) in [6]. For the same compound, the GI50 in experiment [7] was 22.2 µM (inactive); in [8], > 88.7 µM (inactive); in [9], > 42.4 µM (inactive); in [10], 24.4 µM (inactive); in [11] it was 17.5 µM (inactive); in experiment [12] it was 14.4 µM (inactive). Moreover, the GI50 in experiment [13] was 16.1 µM; in experiment [14] it was 1.35 µM (inactive); in [15], 32.4 µM (inactive); in experiment [16] it was 34.2 µM (inactive); in experiment [17], 20.1 µM (inactive); in experiment [18], 10.1 µM (inactive). Also, the GI50 in experiment [19] was 7.28 µM (inactive).
